The target in one test is T1, Progestin Receptor (Homo sapiens, UniProt P06401).
T1 sequence (P06401 1-933): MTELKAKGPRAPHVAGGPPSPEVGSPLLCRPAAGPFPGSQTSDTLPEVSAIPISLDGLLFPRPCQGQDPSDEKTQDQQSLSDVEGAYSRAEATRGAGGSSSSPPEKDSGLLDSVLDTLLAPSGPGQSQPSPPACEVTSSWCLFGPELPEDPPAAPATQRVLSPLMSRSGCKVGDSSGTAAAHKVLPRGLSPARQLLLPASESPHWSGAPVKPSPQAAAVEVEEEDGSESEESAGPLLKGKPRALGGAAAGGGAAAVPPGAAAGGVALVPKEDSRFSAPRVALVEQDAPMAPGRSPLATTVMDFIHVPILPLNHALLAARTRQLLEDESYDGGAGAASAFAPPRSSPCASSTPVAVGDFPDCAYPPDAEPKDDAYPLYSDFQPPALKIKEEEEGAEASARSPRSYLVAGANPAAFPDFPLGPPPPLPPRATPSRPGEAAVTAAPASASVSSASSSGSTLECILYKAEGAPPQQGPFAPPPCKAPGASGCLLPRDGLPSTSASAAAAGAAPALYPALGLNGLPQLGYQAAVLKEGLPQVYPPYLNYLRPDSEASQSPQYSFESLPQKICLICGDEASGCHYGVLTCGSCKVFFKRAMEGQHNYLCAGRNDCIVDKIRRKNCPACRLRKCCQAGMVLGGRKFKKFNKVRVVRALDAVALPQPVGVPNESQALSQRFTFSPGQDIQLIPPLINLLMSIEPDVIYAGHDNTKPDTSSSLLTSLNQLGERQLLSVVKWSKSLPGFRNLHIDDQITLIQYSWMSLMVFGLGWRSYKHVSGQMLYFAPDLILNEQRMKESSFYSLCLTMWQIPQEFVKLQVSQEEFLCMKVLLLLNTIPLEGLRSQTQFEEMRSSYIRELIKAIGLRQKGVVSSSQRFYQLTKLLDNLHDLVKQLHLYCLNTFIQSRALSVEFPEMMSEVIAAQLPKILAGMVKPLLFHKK
The conditions noted are these: cited from earlier work; for Progestin Receptor Binding Affinity: relative binding affinity.

For a further test, the system named is Triton treated rats. As to the kind of experiment: Cholesterol lowering in Triton treated rats. Format: in vivo, Charles Foster rats. The conditions noted are these: Rattus norvegicus, ip; 200 mg/kg i.p.; read-out: % Change S. Chol. The source says: The primary hypolipidemic effect of these compounds was established in triton induced hyperlipidemia in Charles Foster rats. […] The cholesterol lowering effect of some representative compounds of pregrenadienols and pregrenadienones as compared to clofibrate and gugulsterone in triton treated Charles Foster rats is described in Table-2.

In another test the test system is normal rats. As to the kind of experiment: Hypolipidemic activity in normal rats. The test is classed as in vivo. The conditions noted are these: 50 mg/kg. Here is the method:
In normal rats, 3β-hydroxypregna-5,16-dien-20one (2), at 50 mg/kg produced a significant lowering of serum cholesterol and triglycerides as describe in Table-3 below.

The target of the next test is T2, Androgen Receptor (Homo sapiens, UniProt P10275).
T2 sequence (P10275 1-920): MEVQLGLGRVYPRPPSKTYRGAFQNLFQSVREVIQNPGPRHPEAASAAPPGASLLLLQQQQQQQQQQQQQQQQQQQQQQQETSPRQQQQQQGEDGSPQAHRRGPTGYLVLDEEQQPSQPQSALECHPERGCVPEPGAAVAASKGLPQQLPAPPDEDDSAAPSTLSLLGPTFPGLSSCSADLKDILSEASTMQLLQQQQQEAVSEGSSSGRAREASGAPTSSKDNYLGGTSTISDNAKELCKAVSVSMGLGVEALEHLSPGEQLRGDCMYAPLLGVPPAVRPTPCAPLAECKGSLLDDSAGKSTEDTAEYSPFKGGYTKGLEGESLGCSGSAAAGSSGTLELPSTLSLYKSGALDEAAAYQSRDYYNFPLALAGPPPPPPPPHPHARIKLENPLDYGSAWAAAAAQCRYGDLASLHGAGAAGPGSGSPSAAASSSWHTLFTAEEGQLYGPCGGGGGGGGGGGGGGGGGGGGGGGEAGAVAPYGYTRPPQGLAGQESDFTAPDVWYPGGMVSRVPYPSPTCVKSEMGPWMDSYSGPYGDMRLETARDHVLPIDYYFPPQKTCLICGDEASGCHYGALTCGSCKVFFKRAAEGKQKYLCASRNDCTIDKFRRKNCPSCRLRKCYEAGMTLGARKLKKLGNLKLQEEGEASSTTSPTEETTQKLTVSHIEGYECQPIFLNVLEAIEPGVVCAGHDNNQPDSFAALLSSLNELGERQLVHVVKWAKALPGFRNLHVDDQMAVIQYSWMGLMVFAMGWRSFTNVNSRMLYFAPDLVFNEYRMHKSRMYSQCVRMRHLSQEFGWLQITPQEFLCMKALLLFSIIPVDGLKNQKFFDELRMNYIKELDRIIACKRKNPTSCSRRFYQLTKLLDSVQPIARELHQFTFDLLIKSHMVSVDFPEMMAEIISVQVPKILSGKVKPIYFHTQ
As to conditions: relative binding affinity; cited from earlier work.

The subject of test [1] is endometrial proliferation. Kind of test: Clauberg assay, endometrial proliferation on McPhail scale. The test is classed as in vivo. The conditions noted are these: 50 mg/kg. The method, then: The progestational activity was also tested in vivo by Clauberg assay method. The degree of endometrial proliferation was estimated on the McPhail scale where 3′ or 4′ was considered as a full progestational effect.

Consider `C#C[C@]1(O)CC[C@H]2[C@@H]3CCC4=CC(=O)CC[C@@H]4[C@H]3C(=C)C[C@@]21CC` [3-Keto-desogestrel], for which the “Progestin Receptor Binding Affinity” value at Progestin Receptor is 8.6.
Take `CCOC(=O)C(C)(C)Oc1ccc(Cl)cc1` [Compound 10, Clofibrate, reference compound]: in the test on Triton treated rats, the change in vivo at 200 mg/kg was -15%. Moreover, in the test with normal rats (0 Days), the “Serum Cholesterol” value was found to be 82.3 ± 3.3 mg %. In the test with normal rats (30 Days), the “Serum Cholesterol” value amounted to 53.2 ± 2.0 mg %, the “Serum Cholesterol % Fall” value came to 36%, the “Serum Triglycerides” value turned out to be 47.3 ± 3.2 mg % and the “Serum Triglycerides % Fall compared to control” value turned out to be 28%.
Consider `C#C[C@]1(O)C=C[C@H]2[C@@H]3CCC4=CC(=O)CC[C@@H]4[C@H]3CC[C@@]21CC` [Gestodene], for which, on Androgen Receptor, the “Androgen Receptor Binding Affinity” value is listed as 0.154. On Progestin Receptor (androgen vs progestin receptor), the “Selectivity Index (A/P ratio)” value is 28. Also, the “Progestin Receptor Binding Affinity” value at Progestin Receptor was 9.21.
For the compound `CC(=O)[C@H]1CC[C@H]2[C@@H]3CCC4=CC(=O)CC[C@]4(C)[C@H]3CC[C@]12C` [Progesterone, reference compound], the progestational activity entry in test [1] was “marked progestational activity”.

The values above are taken from patent publication US6875758B2, “Method of treating hyperlipidemic and hyperglycemic conditions in mammals using pregnadienols and pregnadienones” (Council of Scientific & Industrial Research, priority 1999, dated 2005).
